Source: US7192953B2, “Antibacterial agents” (Vernalis (Oxford) Limited, priority 2002, dated 2007)
In brackets after ≈: the same amount, converted by molar mass.

Legend:
Format in all cases: cell-based
[1] = test system: H. influenzae; assay: MIC by agar plate dilution against clinical isolates of H. influenzae; conditions: 4 strains of H. influenzae (clinical isolates), 18 to 24 hr, 35° C; for MIC: Haemophilus influenzae, read-out: MIC or MIC range, H. Influenzae
Procedure: (§1) Minimal Inhibitory concentrations (MIC) of inhibitors against clinical isolates of S. pneumoniae, H. influenzae and M. catarrhalis obtained from the Public Health and Clinical Microbiology Laboratory, Addenbrooke's Hospital, Hills Road, Cambridge CB2 2QW, UK, were determined by a standard agar plate dilution method following recommended in British Society for Antimicrobial Chemotherapy Working Party. 1991. “A guide to sensitivity testing British Society for Antimicrobial Chemotherapy, London, United Kingdom”. Briefly Iso-Sensitest agar (pH 7.2: Oxoid, United Kingdom) was employed supplemented with 5% horse blood (Oxoid) and 20 μg of NAD (Sigma) per ml to support growth of fastidious bacteria. The inoculum used was approximately 10^4 colony forming units of each isolate contained in a volume of 1 μl. Plates were incubated 18 to 24 hr in air, or for fastidious bacteria an atmosphere enriched with 4–6% carbon dioxide at 35° C. The MIC was determined as the lowest concentration of an antimicrobial tested that inhibited growth of the inoculum, disregarding a single persisting colony or faint haze caused by the inoculation.
(§2) The compounds of the Examples were are antibacterially active in the above assays, The following table states the MICs or MIC ranges of the tested compounds against 6 strains of S. pneumoniae, 4 strains of H. influenzae and 3 strains of M. catarrhalis.

[2] = test system: S. pneumoniae; assay: MIC by agar plate dilution against clinical isolates of S. pneumoniae; conditions: 6 strains of S. pneumoniae (clinical isolates), 18 to 24 hr, 35° C; for MIC: Streptococcus pneumoniae, read-out: MIC or MIC range, S. pneumoniae
Procedure: as §1, §2

[3] = test system: M. catarrhalis; assay: MIC by agar plate dilution against clinical isolates of M. catarrhalis; conditions: 3 strains of M. catarrhalis (clinical isolates), 18 to 24 hr, 35° C; for MIC: Moraxella catarrhalis, read-out: MIC or MIC range, M. catarrhalis
Procedure: as §1, §2

Row | MIC [1] | MIC [2] | MIC [3] | MIC or MIC range, S. pneumoniae [2] | MIC or MIC range, M. catarrhalis [3] | MIC or MIC range, H. Influenzae [1] | Structure (SMILES)
1 | 0.25 to 8 µg/mL (≈ 0.703 to 22.5 µM) | 1 to 8 µg/mL (≈ 2.81 to 22.5 µM) | 0.25 µg/mL (≈ 0.703 µM) |  |  |  | COCC(=O)N1CCCCN1C(=O)[C@H](CC1CCCC1)CN(O)C=O [Example 2, N-{(2R)-Cyclopentylmethyl-3-[2-(2-methoxyacetyl)tetrahydropyridazin-1-yl]-3-oxo-propyl}-N-hydroxyformamide]
2 | 1 to 4 µg/mL (≈ 2.58 to 10.3 µM) | 0.5 to 2 µg/mL (≈ 1.29 to 5.16 µM) | 0.125 µg/mL (≈ 0.323 µM) |  |  |  | O=CN(O)C[C@@H](CC1CCCC1)C(=O)N1CCCCN1C(=O)c1ccccc1 [Example 3, N-{(2R)-Cyclopentylmethyl-3-[2-benzoyl-tetrahydropyridazin-1-yl]-3-oxo-propyl}-N-hydroxyformamide]
3 |  | 0.5 to 4 µg/mL (≈ 1.1 to 8.78 µM) | 0.5 µg/mL (≈ 1.1 µM) |  |  |  | O=CN(O)C[C@@H](CC1CCCC1)C(=O)N1CCCCN1C(=O)c1ccc(C(F)(F)F)cc1 [Example 4, N-{(2R)-Cyclopentylmethyl-3-[2-(4-trifluoromethylbenzoyl)-tetrahydropyridazin-1-yl]-3-oxo-propyl}-N-hydroxyformamide]
4 |  | 2 to 16 µg/mL (≈ 5.15 to 41.2 µM) | 0.25 µg/mL (≈ 0.644 µM) |  |  |  | O=CN(O)C[C@@H](CC1CCCC1)C(=O)N1CCCCN1C(=O)c1ccncc1 [Example 5, N-{(2R)-Cyclopentylmethyl-3-[2-(pyridine-4-Carbonyl)-tetrahydropyridazin-1-yl]-3-oxo-propyl}-N-hydroxyformamide]
5 | 4 to 8 µg/mL (≈ 10.2 to 20.3 µM) | 0.5 to 2 µg/mL (≈ 1.27 to 5.08 µM) | 0.06 µg/mL (≈ 0.152 µM) |  |  |  | O=CN(O)C[C@@H](CC1CCCC1)C(=O)N1CCCCN1C(=O)C1CCCCC1 [Example 6, N-{(2R)-Cyclopentylmethyl-3-[2-Cyclohexanecarbonyl-tetrahydropyridazin-1-yl]-3-oxo-propyl}-N-hydroxyformamide]
6 |  | 0.5 to 4 µg/mL (≈ 1.2 to 9.58 µM) | 0.5 µg/mL (≈ 1.2 µM) |  |  |  | COc1ccc(C(=O)N2CCCCN2C(=O)[C@H](CC2CCCC2)CN(O)C=O)cc1 [Example 7, N-{(2R)-Cyclopentylmethyl-3-[2-(4-methoxybenzoyl)-tetrahydropyridazin-1-yl]-3-oxo-propyl}-N-hydroxyformamide]
7 | 1 to 8 µg/mL (≈ 2.32 to 18.5 µM) | 0.5 to 4 µg/mL (≈ 1.16 to 9.27 µM) | 0.5 µg/mL (≈ 1.16 µM) |  |  |  | O=CN(O)C[C@@H](CC1CCCC1)C(=O)N1CCCCN1C(=O)c1ccc2c(c1)OCO2 [Example 8, N-{(2R)-Cyclopentylmethyl-3-[2-(benzo[1,3]dioxole-5carbonyl)-tetrahydropyridazin-1-yl]-3-oxo-propyl}-N-hydroxyformamide]
8 | 0.125 to 8 µg/mL (≈ 0.331 to 21.2 µM) | 0.5 to 2 µg/mL (≈ 1.32 to 5.3 µM) | < 0.93 µg/mL |  |  |  | O=CN(O)C[C@@H](CC1CCCC1)C(=O)N1CCCCN1C(=O)c1ccoc1 [Example 9, N-{(2R)-Cyclopentylmethyl-3-[2-(furan-3-Carbonyl)-tetrahydropyridazin-1-yl]-3-oxo-propyl}-N-hydroxyformamide]
9 | 0.5 to 2 µg/mL (≈ 1.23 to 4.93 µM) | 0.5 to 4 µg/mL (≈ 1.23 to 9.87 µM) | 0.5 µg/mL (≈ 1.23 µM) |  |  |  | O=CN(O)C[C@@H](CC1CCCC1)C(=O)N1CCCCN1C(=O)c1ccc(F)cc1 [Example 10, N-{(2R)-Cyclopentylmethyl-3-[2-(4-fluorobenzoyl)-tetrahydropyridazin-1-yl]-3-oxo-propyl}-N-hydroxyformamide]
10 | 0.25 to 2 µg/mL (≈ 0.623 to 4.98 µM) | 0.5 to 4 µg/mL (≈ 1.25 to 9.96 µM) | 0.25 µg/mL (≈ 0.623 µM) |  |  |  | O=CN(O)C[C@@H](CC1CCCC1)C(=O)N1CCCCN1C(=O)Cc1ccccc1 [Example 11, N-{(2R)-Cyclopentylmethyl-3-[2-phenylacetyl-tetrahydropyridazin-1-yl]-3-oxo-propyl}-N-hydroxyformamide]
11 | 16 to 32 µg/mL (≈ 33.8 to 67.6 µM) | 2 to 16 µg/mL (≈ 4.22 to 33.8 µM) | 1 µg/mL (≈ 2.11 µM) |  |  |  | O=CN(O)C[C@@H](CC1CCCC1)C(=O)N1CCCCN1C(=O)c1ccc(N2CCOCC2)nc1 [Example 12, N-{(2R)-Cyclopentylmethyl-3-[2-(6-morpholin-4-yl-pyridine-3-Carbonyl)-tetrahydropyridazin-1-yl]-3-oxo-propyl}N-hydroxyformamide]
12 |  |  |  | 8 to 16 µg/mL | 2 µg/mL (≈ 3.71 µM) |  | O=CN(O)C[C@@H](CC1CCCC1)C(=O)N1CCCCN1C(=O)Nc1cc(C(F)(F)F)cc(C(F)(F)F)c1 [Example 13, 2-[(2R)-Cyclopentylmethyl-3-(formylhydroxyamino)-propionyl]-tetrahydropyridazine-1-Carboxylic acid (3,5-bis-(trifluoromethyl)phenyl)amide]
13 | 0.125 to 4 µg/mL (≈ 0.311 to 9.94 µM) | 2 to 4 µg/mL (≈ 4.97 to 9.94 µM) | < 0.125 µg/mL |  |  |  | O=CN(O)C[C@@H](CC1CCCC1)C(=O)N1CCCCN1C(=O)Nc1ccccc1 [Example 14, 2-[(2R)-Cyclopentylmethyl-3-(formylhydroxyamino)-propionyl]-tetrahydropyridazine-1-Carboxylic acid phenylamide]
14 | 0.125 to 4 µg/mL (≈ 0.289 to 9.25 µM) | 2 to 4 µg/mL (≈ 4.62 to 9.25 µM) | < 0.125 µg/mL |  |  |  | COc1cccc(NC(=O)N2CCCCN2C(=O)[C@H](CC2CCCC2)CN(O)C=O)c1 [Example 15, 2-[(2R)-Cyclopentylmethyl-3-(formylhydroxyamino)-propionyl]-tetrahydropyridazine-1-Carboxylic acid (3-methoxyphenyl)amide]
15 | 0.125 to 4 µg/mL (≈ 0.297 to 9.51 µM) | 4 to 8 µg/mL (≈ 9.51 to 19 µM) | < 0.125 µg/mL |  |  |  | O=CN(O)C[C@@H](CC1CCCC1)C(=O)N1CCCCN1C(=O)Nc1ccc(F)cc1 [Example 16, 2-[(2R)-Cyclopentylmethyl-3-(formylhydroxyamino)propionyl]-tetrahydropyridazine-1-Carboxylic acid (4-fluorophenyl)amide]
16 | 0.125 µg/mL (≈ 0.285 µM) | 4 to 8 µg/mL (≈ 9.12 to 18.2 µM) | < 0.125 µg/mL |  |  |  | O=CN(O)C[C@@H](CC1CCCC1)C(=O)N1CCCCN1C(=O)Nc1ccc(F)cc1F [Example 17, 2-[(2R)-Cyclopentylmethyl-3-(formylhydroxyamino)-propionyl]-tetrahydropyridazine-1-Carboxylic acid (2,4-bis(fluoro)phenyl)amide]
17 | 0.25 to 16 µg/mL (≈ 0.531 to 34 µM) | 4 µg/mL (≈ 8.5 µM) | < 0.125 µg/mL |  |  |  | O=CN(O)C[C@@H](CC1CCCC1)C(=O)N1CCCCN1C(=O)Nc1ccc(C(F)(F)F)cc1 [Example 18, 2-[(2R)-Cyclopentylmethyl-3-(formylhydroxyamino)-propionyl]-tetrahydropyridazine-1-Carboxylic acid (4-trifluoromethylphenyl)amide]
18 | 0.125 to 4 µg/mL (≈ 0.271 to 8.69 µM) | 2 to 4 µg/mL (≈ 4.34 to 8.69 µM) | < 0.125 µg/mL |  |  |  | O=CN(O)C[C@@H](CC1CCCC1)C(=O)N1CCCCN1C(=O)Nc1ccc2c(c1)OCCO2 [Example 19, 2-[(2R)-Cyclopentylmethyl-3-(formylhydroxyamino)-propionyl]-tetrahydropyridazine-1-Carboxylic acid (2,3,4a,8a-tetrahydrobenzo[1,4]dioxin-6-yl)amide]
19 | 0.5 to 2 µg/mL (≈ 1.16 to 4.62 µM) | 4 to 8 µg/mL (≈ 9.25 to 18.5 µM) | < 0.03 µg/mL |  |  |  | COc1ccccc1NC(=O)N1CCCCN1C(=O)[C@H](CC1CCCC1)CN(O)C=O [Example 20, 2-[(2R)-Cyclopentylmethyl-3-(formylhydroxyamino)-propionyl]-tetrahydropyridazine-1-Carboxylic acid (2-methoxyphenyl)amide]
20 |  | 4 to 16 µg/mL (≈ 8.25 to 33 µM) | 2 µg/mL (≈ 4.13 µM) |  |  |  | O=CN(O)C[C@@H](CC1CCCC1)C(=O)N1CCCCN1C(=O)N1CCC(Cc2ccccc2)CC1 [Example 22, N-{(2R)-Cyclopentylmethyl-3-[2-(4-benzylpiperidine-1-Carbonyl)-tetrahydropyridazin-1-yl]-3-oxo-propyl}-N-hydroxyformamide]
21 |  | 16 to 32 µg/mL (≈ 42.7 to 85.5 µM) | 0.125 µg/mL (≈ 0.334 µM) |  |  |  | O=CN(O)C[C@@H](CC1CCCC1)C(=O)N1CCCN1C(=O)c1ccncc1 [Example 30, N-{(2R)-Cyclopentylmethyl-3-[2-(pyridine-4-Carbonyl)-pyrazolidin-1-yl]-3-oxo-propyl}-N-hydroxyformamide]
22 |  | 4 µg/mL (≈ 11 µM) | 0.06 µg/mL (≈ 0.165 µM) |  |  |  | O=CN(O)C[C@@H](CC1CCCC1)C(=O)N1CCCN1C(=O)c1ccoc1 [Example 37, N-{(2R)-Cyclopentylmethyl-3-[2-(furan-3-Carbonyl)-pyrazolidin-1-yl]-3-oxo-propyl}-N-hydroxyformamide]
23 | 2 to 8 µg/mL (≈ 4.38 to 17.5 µM) | 2 to 8 µg/mL (≈ 4.38 to 17.5 µM) |  |  |  |  | O=CN(O)C[C@@H](CC1CCCC1)C(=O)N1CCCN1C(=O)Nc1ccc(C(F)(F)F)cc1 [Example 42, 2-[(2R)-Cyclopentylmethyl-3-(formylhydroxyamino)-propionyl]-pyrazolidine-1-Carboxylic acid (4-trifluoromethylphenyl)amide]
24 |  |  |  |  | 8 µg/mL (≈ 19.9 µM) | 16 to 32 µg/mL | CN(C(=O)N1CCCN1C(=O)[C@H](CC1CCCC1)CN(O)C=O)c1ccccc1 [Example 43, 2-[(2R)-Cyclopentylmethyl-3-(formylhydroxyamino)-propionyl]-pyrazolidine-1-Carboxylic acid methylphenylamide]
25 |  |  |  | 4 to 8 µg/mL |  | 1 to 4 µg/mL | O=C(C[C@@H](CC1CCCC1)C(=O)N1CCCCN1C(=O)Nc1ccccc1)NO [Example 45, 2-[(2R)-Cyclopentylmethyl-3-hydroxycarbamoylpropionyl]-tetrahydropyridazine-1-Carboxylic acid phenylamide]
